Reference: publication PMC10693084, “Novel 8-Methoxycoumarin-3-Carboxamides with potent anticancer activity against liver cancer via targeting caspase-3/7 and β-tubulin polymerization” (BMC Chemistry, 2023)

What was measured:
WI 38 normal cells = assay: MTT cytotoxicity assay against WI 38 normal cells; assay type: cell-based; details: Homo sapiens, WI 38 normal lung cells, 24 h treatment
Method: (§1) Following the incubation period, the cells were subjected to various concentrations of the prepared molecules and subsequently incubated for a duration of 24 h. […] Subsequently, a volume of 100 μL of dimethyl sulfoxide (DMSO) was introduced into each well in order to facilitate the dissolution of the purple formazan that had been generated. The quantification of the color intensity of the formazan product, which serves as an indicator of the cellular growth condition, is performed by employing an ELISA plate reader set at a wavelength of 570 nm. The experimental conditions were implemented with a minimum of three replicates, and the experiments were conducted on at least three separate occasions.

HepG2 cells = assay: Cell cycle analysis by flow cytometry (PI); assay type: cell-based, human; details: HepG2, 0.9 µM (IC50), 24 h
Method: Next, our investigations focused on evaluating the effects of compound 5 on the cell cycle of HepG2 cells utilizing flow cytometric analysis. The cells were treated with compound 5 at a concentration corresponding to the IC50 value and the cell cycle distribution was then analyzed, and the results were compared with untreated control cells. […] Conversely, there was a notable increase in the cellular population at the G2/M and pre-G1 phases. […] These findings indicate that compound 5 induces a notable arrest in cell growth during the […] phase. The flow cytometric analysis of HepG2 cells treated with compound 5 provided valuable insights into its effects on the cell cycle distribution. […] The G0/G1 phase is the resting phase, where cells prepare for DNA replication and cell division, while the S phase is where DNA replication occurs. […] This is a critical control point where the cell ensures that DNA replication is complete and free from errors before entering mitosis. […] The most remarkable finding was the dramatic rise in the pre-G1 population upon treatment with compound 5. The pre-G1 phase is associated with cells undergoing apoptosis, which is a programmed cell death process. […] This implies that the treatment with compound 5 leads to the activation of apoptotic pathways, causing the cells to undergo DNA fragmentation and degradation, ultimately leading to cell death. […] G2/M arrest prevents cells from progressing through the cell cycle, while apoptosis eliminates the damaged or aberrant cells. These combined effects may contribute to the compound's potent anti-cancer activity against HepG2 cells.
The quantification of DNA content in the cell cycle analysis was performed using a FACS Calibur flow cytometer at a wavelength of 488 nm, following the guidelines provided by the manufacturer. […] Following the completion of the treatment, the cells underwent two rounds of washing and were subsequently resuspended in phosphate-buffered saline (PBS). Following the washing step, a volume of 0.7 ml of absolute ethanol was subsequently introduced, and the mixture was incubated at a temperature of -20 °C for a duration of 20 min. Following the washing step, a volume of 500 μl of RNase was introduced, and subsequently, the mixture was incubated for a duration of 30 min. Next, the addition of PI was carried out, followed by a 30-min incubation period, during which exposure to light was carefully avoided.

[1] = tested on: human liver carcinoma HepG2 cells; assay: MTT cytotoxicity assay against HepG2 cells; assay type: cell-based; details: HepG2 cells
Method: To assess the antitumor properties of these compounds, we utilized the 3-(4,5-dimethylthiazol-2-yl)-2,5-diphenyl tetrazolium bromide (MTT) colorimetric assay, a widely used method to evaluate cell viability and cytotoxicity.
as §1

β-tubulin = target: T1, β-tubulin (Homo sapiens, UniProt P07437); assay: β-tubulin polymerization activity (TUB β ELISA, 450 nm) in HepG2 cells; assay type: cell-based; details: HepG2, 0.9 µM, 24 h
T1 construct: impact of compound 5 on β-tubulin polymerization activity in HepG2 cells; endogenous in cells; host or cells: HepG2
Source text: Microtubules are widely recognized as a significant target for anti-cancer therapy due to their pivotal involvement in cellular division and the preservation of cellular morphology. The impact of numerous anti-cancer agents is achieved through their ability to disrupt microtubule dynamics. This disruption ultimately results in the deregulation of mitotic spindles, leading to cell cycle arrest in cancer cells and subsequently inducing apoptosis. Toward this end, we further aimed to assess investigated the impact of compound 5 on β-tubulin polymerization activity in HepG2 cells. Thus, HepG2 cells were treated with compound 5 at (0.9 µM) for a duration of 24 h and the activity of β-tubulin polymerization was explored using spectrophotometry at 450 nm. […] These findings indicate that compound 5 interferes with the process of microtubule assembly, thereby disrupting the proper formation of mitotic spindles. […]
Dulbecco's Modified Eagle Medium (DMEM) (Invitrogen/Life Technologies) containing 10% fetal bovine serum (FBS) (Hyclone), 10 µg/mL of insulin (Sigma), and 1% penicillin–streptomycin was used for culturing the HepG2 cell line. […] This color change was then quantitatively measured using spectrophotometry at a specific wavelength of 450 nm ± 10 nm. […]

T1 sequence (P07437 whole entry): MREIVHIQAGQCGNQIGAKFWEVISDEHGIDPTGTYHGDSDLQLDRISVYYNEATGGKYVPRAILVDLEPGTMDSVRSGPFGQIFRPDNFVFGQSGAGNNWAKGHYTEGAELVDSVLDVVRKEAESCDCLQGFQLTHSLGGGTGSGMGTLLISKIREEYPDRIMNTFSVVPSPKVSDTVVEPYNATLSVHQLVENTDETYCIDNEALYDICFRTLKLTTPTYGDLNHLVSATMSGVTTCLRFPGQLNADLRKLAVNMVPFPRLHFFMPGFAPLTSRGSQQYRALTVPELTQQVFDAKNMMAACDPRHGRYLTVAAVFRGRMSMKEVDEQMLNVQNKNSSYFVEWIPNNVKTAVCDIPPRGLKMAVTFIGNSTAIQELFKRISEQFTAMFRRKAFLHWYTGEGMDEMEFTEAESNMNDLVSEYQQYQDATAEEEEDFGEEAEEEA
T1 sequence (P68363 whole entry partner): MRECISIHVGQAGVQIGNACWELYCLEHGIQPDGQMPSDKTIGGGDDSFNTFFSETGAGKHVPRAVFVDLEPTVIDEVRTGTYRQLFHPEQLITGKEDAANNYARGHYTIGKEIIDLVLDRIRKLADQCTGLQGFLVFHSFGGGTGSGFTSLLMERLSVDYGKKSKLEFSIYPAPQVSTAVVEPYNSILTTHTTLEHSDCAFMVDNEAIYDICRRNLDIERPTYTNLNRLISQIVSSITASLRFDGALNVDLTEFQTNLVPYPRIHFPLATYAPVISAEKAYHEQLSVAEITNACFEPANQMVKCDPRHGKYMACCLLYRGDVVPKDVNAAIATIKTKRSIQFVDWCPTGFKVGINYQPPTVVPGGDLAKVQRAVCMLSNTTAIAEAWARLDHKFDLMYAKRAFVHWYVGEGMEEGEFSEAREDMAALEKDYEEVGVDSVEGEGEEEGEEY

In the case of `COc1ccc(Br)c2cc(C(N)=O)c(=O)oc12` [Compound 5, 5-Bromo-8-methoxycoumarin-3-carboxamide], the IC50 (WI 38 normal cells) is reported as 24.1 ± 1.46 µM, the “percentage of cells in pre-G1 phase” value (HepG2 cells; untreated 2.08%) is reported as 45.88% and the “percentage of cells in G2/M phase” value (HepG2 cells; untreated 15.38%) is reported as 31.51%. The “percentage of cells in S phase” value (HepG2 cells; untreated 34.91%) was 27.4%, the “percentage of cells in G0/G1 phase” value (HepG2 cells; untreated 49.71%) was 41.09% and the “Structure–activity summary of cytotoxic activity (Fig. 4B)” value [1] was “improved activity”. For the same compound, the IC50 ([1]; Homo sapiens, HepG2, 24 h, MTT, 24 h treatment) was 0.9 ± 0.05 µM and the “reduction in the concentration of β-tubulin polymerization vs untreated HepG2 cells” value (β-tubulin) was “threefold”.
